Reference: patent US8183234B2, “Tricyclic guanidine derivatives as sodium-proton exchange inhibitors” (Piramal Life Sciences Limited, priority 2004, dated 2012)
Structures can show the parent of a compound that is named as a salt.

Legend:
[1] = target: T1, NHE-1 (Homo sapiens, UniProt P19634); test: Primary screening assay in human platelets (acidified human platelet swelling assay); format: cell-based; conditions: concentration required to inhibit 50% of NHE-1 activity in isolated human platelets; mean of three readings, PRP from three donors
T1 construct: NHE-1 isoform which is predominantly present in human platelets; endogenous in cells; host or cells: human platelets (platelet rich plasma from blood of healthy volunteers)
Description: Experiments on inhibition of NHE in human platelets are based on those published in (Cardiovasc. Res. 29: 260-268, (1995), J. Med. Chem. 41, 3736-3747, (1998)) Blood (150 mL) collected in a siliconized glass bottle from healthy volunteers was treated with aqueous acid citrate dextrose (ACD) solution (25 mL) [composition: citric acid (38 mM/L), glucose (136 mM/L) and trisodium citrate (75 mM/L)] and immediately centrifuged at 200 g for 20 min. The platelet rich plasma (PRP) was separated and a platelet count carried out using a Beckman Coulter A^c T® cell counter. The cell count was adjusted to 3×10^8 platelets/mL using platelet free plasma.
Activation of Na^+/H^+ exchanger by intracellular acidification: 150 μL of PRP was added to 750 μL of propionate buffer [composition: KCl (5 mM/L), CaCl2 (1 mM/L), MgCl2 (1 mM/L), glucose (10 mM/L), HEPES (20 mM/L), sodium propionate (140 mM/L)] of pH 6.6, in a cuvette. Optical density was recorded at 630 nm using a Shimadzu spectrophotometer (UV 1601). The micromolar concentrations of a few representative compounds required to inhibit 50% of NHE-1 activity (IC50), in isolated human platelets (acidified human platelet swelling assay) is shown in Table 2. IC50 values are the mean of three experimental readings using PRP isolated from the blood of three different donors.

T1 sequence (P19634 whole entry, canonical isoform): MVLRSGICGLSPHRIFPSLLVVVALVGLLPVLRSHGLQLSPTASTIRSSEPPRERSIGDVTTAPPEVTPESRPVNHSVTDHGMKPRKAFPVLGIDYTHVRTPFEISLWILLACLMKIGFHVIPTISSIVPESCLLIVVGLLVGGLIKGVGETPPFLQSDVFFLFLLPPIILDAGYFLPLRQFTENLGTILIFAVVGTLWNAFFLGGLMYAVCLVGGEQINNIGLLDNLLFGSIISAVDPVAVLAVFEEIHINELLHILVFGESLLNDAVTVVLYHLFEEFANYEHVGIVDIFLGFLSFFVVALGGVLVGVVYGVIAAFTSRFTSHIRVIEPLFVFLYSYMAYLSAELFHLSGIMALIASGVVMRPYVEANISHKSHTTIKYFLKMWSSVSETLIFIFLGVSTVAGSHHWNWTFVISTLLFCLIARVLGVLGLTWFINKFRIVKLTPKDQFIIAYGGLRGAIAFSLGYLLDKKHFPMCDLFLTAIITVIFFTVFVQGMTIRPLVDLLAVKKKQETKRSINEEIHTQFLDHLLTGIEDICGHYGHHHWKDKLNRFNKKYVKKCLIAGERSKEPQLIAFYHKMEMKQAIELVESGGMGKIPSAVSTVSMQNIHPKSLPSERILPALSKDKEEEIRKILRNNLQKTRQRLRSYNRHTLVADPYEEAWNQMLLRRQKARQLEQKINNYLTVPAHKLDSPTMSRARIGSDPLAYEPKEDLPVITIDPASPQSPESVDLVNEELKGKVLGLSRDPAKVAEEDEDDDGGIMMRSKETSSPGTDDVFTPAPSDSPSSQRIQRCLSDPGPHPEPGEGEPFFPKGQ

Structure (SMILES)	IC50 [1] [nM]	melting point [°C]
Cc1cc2c(cc1C(=O)N=C(N)N)S(=O)(=O)Cc1ccccc1N2 [Example 183, N-(7-Methyl-10,10-dioxo-10,11-dihydro-5H-10lambda*6*-thia-5-aza-dibenzo[a.d]cycloheptene-8-carbonyl)-guanidine, methane sulfonic acid salt]	100	–
NC(N)=NC(=O)c1cc(Cl)c2c(c1)S(=O)(=O)Cc1cccc(Cl)c1O2 [Example 45, 4,6-Dichloro-10,10-dioxo-10,11-dihydro-5-oxa-10lambda*6*-thia-dibenzo[a,d]cycloheptene-8-carbonylguanidine, methane sulfonic acid salt]	70	–
CS(=O)(=O)O.CS(=O)(=O)O.Cc1cc(C(=O)NC(=N)N)cc2c1Oc1c(Cl)cc(NC(=O)CNC3CC3)cc1CS2(=O)=O [Example 138, N-(4-Chloro-8-guanidinocarbonyl-6-methyl-10,10-dioxo-10,11-dihydro-5-oxa-10lambda*6*-thia-dibenzo[a,d]cyclohepten-2-yl)-2-cyclopropylamino-acetamide dimesylate]	–	188 to 190
CS(=O)(=O)O.CS(=O)(=O)O.CS(=O)(=O)O.Cc1cc(C(=O)NC(=N)N)cc2c1Oc1c(Cl)cc(N3CCN(Cc4cccnc4)CC3)cc1CS2(=O)=O [Example 128, N-[4-Chloro-6-methyl-10,10-dioxo-2-(4-pyridin-3-ylmethyl-piperazin-1-yl)-10,11-dihydro-5-oxa-10lambda*6*-thia-dibenzo[a,d]cycloheptene-8-carbonyl]-guanidine trimesylate]	–	190 to 192
Cc1cc(C(=O)N=C(N)N)cc2c1Oc1c(Cl)cc(CN)cc1CS2(=O)=O (as salt: mesylate) [Example 198, N-(2-Aminomethyl-4-chloro-6-methyl-10,10-dioxo-10,11-dihydro-5-oxa-10lambda*6*-thia-dibenzo[a.d]cycloheptene-8-carbonyl)-guanidine trimesylate]	–	242 to 244
CS(=O)(=O)O.CS(=O)(=O)O.CS(=O)(=O)O.Cc1cc(C(=O)NC(=N)N)cc2c1Oc1c(Cl)cc(NCCN3CCN(CCO)CC3)cc1CS2(=O)=O [Example 70, N-(4-Chloro-2-{2-[4-(2-hydroxy-ethyl)-piperazin-1-yl]-ethylamino}-6-methyl-10,10-dioxo-10,11-dihydro-5-oxa-10lambda*6*-thia-dibenzo{a,d}cycloheptene-8-carbonyl)-guanidine trimesylate]	–	218 to 220
Cc1cc(C(=O)N=C(N)N)cc2c1Oc1c(cccc1C(C)C)CS2(=O)=O (as salt: sulfonic acid salt) [Example 31, N-(4-Isopropyl-6-methyl-10,10-dioxo-10,11-dihydro-5-oxa-10lambda*6*-thia-dibenzo[a,d]cycloheptene-8-carbonyl)-guanidine, methane sulfonic acid salt]	–	252 to 253
CS(=O)(=O)O.CS(=O)(=O)O.Cc1cc(C(=O)NC(=N)N)cc2c1Oc1c(Cl)cc(N3CCN(CCO)CC3)cc1CS2(=O)=O [Example 197, N-{4-Chloro-2-[4-(2-hydroxy-ethyl)-piperazin-1-yl]-6-methyl-10,10-dioxo-10,11-dihydro-5-oxa-10lambda*6*-thia-dibenzo[a,d]cycloheptene-8-carbonyl}-guanidine dimesylate]	–	185 to 187
CC(=O)N(CCN1CCOCC1)c1cc(Cl)c2c(c1)CS(=O)(=O)c1cc(C(=O)NC(=N)N)cc(C)c1O2.CS(=O)(=O)O.CS(=O)(=O)O [Example 68, N-(4-Chloro-8-guanidinocarbonyl-6-methyl-10,10-dioxo-10,11-dihydro-5-oxa-10lambda*6*-thia-dibenzo[a,d]cyclohepten-2-yl)-N-(2-morpholin-4-yl-ethyl)-acetamide dimesylate]	–	198 to 200
CS(=O)(=O)O.CS(=O)(=O)O.Cc1cc(C(=O)NC(=N)N)cc2c1Oc1c(Cl)cc(NCCNCc3ccccc3)cc1CS2(=O)=O [Example 88, N-[2-(2-Benzylamino-ethylamino)-4-chloro-6-methyl-10,10-dioxo-10,11-dihydro-5-oxa-10lambda*6*-thia-dibenzo[a,d]cycloheptene-8-carbonyl]-guanidine dimesylate]	–	232 to 233
CS(=O)(=O)O.CS(=O)(=O)O.CS(=O)(=O)O.Cc1ccc(CNc2cc(Cl)c3c(c2)CS(=O)(=O)c2cc(C(=O)NC(=N)N)cc(C)c2O3)s1 [Example 164, N-{4-Chloro-6-methyl-2-[(5-methyl-thiophen-2-ylmethyl)-amino]-10,10-dioxo-10,11-dihydro-5-oxa-10lambda*6*-thia-dibenzo[a,d]cycloheptene-8-carbonyl}-guanidine trimesylate]	–	230 to 232
CC(=O)N(CCN(C)C)c1cc(Cl)c2c(c1)CS(=O)(=O)c1cc(C(=O)NC(=N)N)cc(C)c1O2.CS(=O)(=O)O.CS(=O)(=O)O.CS(=O)(=O)O [Example 100, N-(4-Chloro-8-guanidinocarbonyl-6-methyl-10,10-dioxo-10,11-dihydro-5-oxa-10lambda*6*-thia-dibenzo[a,d]cyclohepten-2-yl)-N-(2-dimethylamino-ethyl)-acetamide trimesylate]	–	128 to 130
CS(=O)(=O)O.CS(=O)(=O)O.Cc1cc(C(=O)NC(=N)N)cc2c1Oc1c(Cl)cc(NC(=O)CN3CCN(c4cccc(C(F)(F)F)c4)CC3)cc1CS2(=O)=O [Example 145, N-(4-Chloro-8-guanidinocarbonyl-6-methyl-10,10-dioxo-10,11-dihydro-5-oxa-10lambda*6*-thia-dibenzo[a,d]cyclohepten-2-yl)-2-[4-(3-trifluoromethyl-phenyl)-piperazin-1-yl]-acetamide dimesylate]	–	222
CS(=O)(=O)O.Cc1cc(C(=O)NC(=N)N)cc2c1Oc1c(Cl)cc(NC(=O)CO)cc1CS2(=O)=O [Example 136, N-(4-Chloro-8-guanidinocarbonyl-6-methyl-10,10-dioxo-10,11-dihydro-5-oxa-10lambda*6*-thia-dibenzo[a,d]cycloheptene-2-yl)-2-hydroxy-acetamide methane sulfonic acid salt]	–	180 to 182
CS(=O)(=O)O.CS(=O)(=O)O.Cc1cc(C(=O)NC(=N)N)cc2c1Oc1c(Cl)cc(N(CCN3CCCC3)C(=O)C3CC3)cc1CS2(=O)=O [Example 76, Cyclopropanecarboxylic acid (4-chloro-8-guanidinocarbonyl-6-methyl-10,10-dioxo-10,11-dihydro-5-oxa-10lambda*6*-thia-dibenzo[a,d]cyclohepten-2-yl)-(2-pyrrolidin-1-yl-ethyl)-amide dimesylate]	–	178 to 179
CS(=O)(=O)O.CS(=O)(=O)O.CS(=O)(=O)O.Cc1cc(C(=O)NC(=N)N)cc2c1Oc1c(Cl)cc(N(CCN3CCCC3)C(=O)CNC3CC3)cc1CS2(=O)=O [Example 150, N-(4-Chloro-8-guanidinocarbonyl-6-methyl-10,10-dioxo-10,11-dihydro-5-oxa-10-lambda*6*-thia-dibenzo[a,d]cycloheptene-2-yl)-2-cyclopropylamino-N-(2-pyrrolidin-1-yl-ethyl)-acetamide trimesylate]	–	150 to 152
CNCCNc1cc(Cl)c2c(c1)CS(=O)(=O)c1cc(C(=O)NC(=N)N)cc(C)c1O2.CS(=O)(=O)O.CS(=O)(=O)O [Example 71, N-[4-Chloro-6-methyl-2-(2-methylamino-ethylamino)-10,10-dioxo-10,11-dihydro-5-oxa-10lambda*6*-thia-dibenzo[a,d]cycloheptene-8-carbonyl)-guanidine dimesylate]	–	250 to 251
Cc1cc(C(=O)N=C(N)N)cc2c1Oc1c(Cl)cc(NCCn3ccnc3)cc1CS2(=O)=O (as salt: mesylate) [Example 64, N-[4-Chloro-2-(2-imidazol-1-yl-ethylamino)-6-methyl-10,10-dioxo-10,11-dihydro-5-oxa-10lambda*6*-thia-dibenzo[a,d]cycloheptene-8-carbonyl]-guanidine dimesylate]	–	243 to 244
Cc1cc2c(cc1C(=O)N=C(N)N)S(=O)(=O)Cc1ccccc1N2 (as salt: sulfonic acid salt) [Example 183, N-(7-Methyl-10,10-dioxo-10,11-dihydro-5H-10lambda*6*-thia-5-aza-dibenzo[a.d]cycloheptene-8-carbonyl)-guanidine, methane sulfonic acid salt]	–	292 to 294
CS(=O)(=O)O.CS(=O)(=O)O.Cc1cc(C(=O)NC(=N)N)cc2c1Oc1c(Cl)cc(N3CCN(C(C)C)CC3=O)cc1CS2(=O)=O [Example 60, N-[4-Chloro-2-(4-isopropyl-2-oxo-piperazin-1-yl)-6-methyl-10,10-dioxo-10,11-dihydro-5-oxa-10lambda*6*-thia-dibenzo[a,d]cycloheptene-8-carbonyl]-guanidine dimesylate]	–	196 to 198
CS(=O)(=O)O.CS(=O)(=O)O.Cc1cc(C(=O)NC(=N)N)cc2c1Oc1c(Cl)cc(S(=O)(=O)N3CCN(C)CC3)cc1CS2(=O)=O [Example 54, N-[4-Chloro-6-methyl-2-(4-methyl-piperazine-1-sulfonyl)-10,10-dioxo-10,11-dihydro-5-oxa-10lambda*6*-thia-dibenzo[a,d]cyclohepten-8-carbonyl]-guanidine dimesylate]	–	187 to 189
